Results: patent US10035780B2, “Quinazoline scaffold based compounds, pharmaceutical compositions and methods of use thereof” (TECHNION RESEARCH & DEVELOPMENT FOUNDATION LTD., priority 2014, dated 2018)
Entries after “also recorded” stand apart in the source; their conditions may differ.

How the values were obtained:
SH SY 6Y cells = experiment: Protection of SH SY 6Y neuronal cells against lethal effects of glutamate; format: cell-based, human
Description: (§1) Cell cultures of various human glial type cell lines (T98G, U87MG, A172, U118MG), as well as human neuronal type cell lines SH-SY 5Y and Be(2)-C were used to test the new compounds. In addition, the rat glioma cell line C6 was used. PC12 cells originating from rats were used as another cell line displaying neuronal characteristics. The applicants also have produced, by genetic manipulation, a modified rat C6 glial cell strain and a modified human U118MG glial type cell strain, both under-expressing the TSPO, which allows to study TSPO specific effects, including of the compounds of the invention, which can be done according to methods described previously (Weisinger et al. Biochemistry. 2004; 43:12315-21; Levin et al. 2005; Zeno et al., 2009).
The protective capabilities of the compounds of the invention and involvement of the TSPO were tested in cell culture, using cell lines of glial and neuronal type, cultured and testing according to standard methods (Kugler et al. 2008; Zeno et al. 2009; Dadon-Nachum et al. Stem Cell Rev. 2011; 7:664-71). […]

U118MG cells = experiment: Protection against cell death induced by glutamate in U118MG cell culture; format: cell-based, human; details: for Protection against glutamate-induced cell death: cell culture, grade in words; for protection against cell death induced by glutamate: U118MG cells, 35 mM glutamate, compound 1-100 μM
Description: as §1
The protective capabilities of the compounds of the invention and involvement of the TSPO were tested in cell culture, using cell lines of glial and neuronal type, cultured and testing according to standard methods (Kugler et al. 2008; Zeno et al. 2009; Dadon-Nachum et al. Stem Cell Rev. 2011; 7:664-71). Furthermore, primary cell cultures are also used (Banker, G. et al. Culturing Nerve Cells, 2nd Edition, The MIT Press (1998). Treatments included: (1) exposure to glutamate (35 mM), Abeta(1-42), NH4Cl, CoCl2, and nitric oxide (NO) donors, in order to mimic particular aspects of neurodegeneration; (2) treatment with the novel compounds and with traditional TSPO ligands as comparative treatment; and (3) TSPO knockdown by genetic manipulation.
Techniques and parameters assayed are summarized here: Total protein levels (Bradford. Anal Biochem. 1976; 72:248-54); TSPO ligand binding assays (Kugler et al. 2008; Levin et al. 2005; Danovich et al. Eur Neuropsychopharmacol. 2008; 18:24-33) cell death, including apoptosis and necrosis and related molecular biological processes (Soustiel et al. Neuropathol Appl Neurobiol. 2008; 34:412-23; Soustiel et al. Exp Neurol. 2008; 214:201-8; Zeno et al. 2009); mitochondrial transmembrane potential collapse (Chelli et al. Biochem Pharmacol. 2004; 68:125-34; Kugler et al. 2008; Zeno et al., 2009; Shargorodsky et al. Apoptosis. 2012; 17:647-65), reactive oxygen species (ROS) generation as a measure of oxidative stress (Veenman et al. 2008; Zeno et al. 2009); TSPO knockdown (Levin et al. 2005; Zeno et al. 2009); expression levels of mitochondrial TSPO and associated proteins (Veenman et al. 2002; Levin et al. 2005; Veenman et al. 2008); gene expression with RT-PCR and microarray analysis (Bode et al. 2012; Veenman et al. 2012). Parameters of inflammation, immune response, migration, and the cell cycle are also tested. All these approaches can also be applied for quality control of the compounds.
The compounds of the invention protect against cell death induced by glutamate in cell culture of U118MG cells of astrocytic origin (FIGS. 1, 2, 3 and 8) or SH SY 6Y cells of neuronal origin (FIG. 4). […] In the control group, 35 mM of glutamate killed ˜60% of the cells.
The experimental setup is explained using FIG. 8B as an example: • 1. Control: Cell death levels are taken as 0% • 2. Glu: Cell death levels induced by glutamate are over 50% • 3. […] Glu+Cpd 5: When Cpd 5 is given as a treatment to counteract cell death induced by glutamate, increasing concentrations of Cpd 5 reduce cell death levels from over 50% to less than 5%.

TSPO = TSPO (Homo sapiens (Human), UniProt P30536); format: binding; details: displacement of [3H]PK 11195 from TSPO
Chain of TSPO (P30536 whole entry): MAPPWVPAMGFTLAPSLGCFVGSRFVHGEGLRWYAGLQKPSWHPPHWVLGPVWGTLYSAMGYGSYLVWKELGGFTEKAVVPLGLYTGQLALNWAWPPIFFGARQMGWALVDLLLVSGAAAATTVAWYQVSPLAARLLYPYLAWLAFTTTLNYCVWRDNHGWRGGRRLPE
Description: Briefly, the assay utilizes radioactive standard ligand [^3H] PK 11195 (1-(2-chlorophenyl)-N-methyl-N-(1-methyl-propyl)-3 isoquinolinecarboxamide), and measures the ability of the compounds of the invention to displace standard ligand in binding to TSPO. Total radioactive binding was determined by measuring the radioactivity of the radioactive ligand-receptor complex, obtained in the reaction of radioactive standard with the TSPO. Radioactive standard and the examined compound were added to the TSPO and after some incubation time the radioactivity of the resulting ligand-receptor complexes was measured with the help of a […]. This radioactivity indicates the binding of the radioactive standard to TSPO. […] This can be expressed as the half maximal inhibitory concentration (IC50), which is a measure of the effectiveness of a compound in inhibiting biological or biochemical function, in this case inhibiting binding of standard radioactive ligand binding to the TSPO. A derivative of the IC50 is the Ki, which is the calculated binding affinity of the novel compound to the TSPO.
Binding to TSPO was evaluated using a [^3H]PK 11195 radio-assay, as described above.

R6-2 mice [1] = experiment: Lifespan of R6-2 mice, transgenic model for Huntington Disease; format: in vivo, mouse; details: for effect on lifespan: daily s.c. injections 5 days a week from week 5, vs DMSO and saline
Text: For the assays described herein systemic injections of kainic in rats were applied and also contusion (Veenman et al. 2002; Soustiel et al. Neuropathol Appl Neurobiol. 2008; Soustiel et al. Exp Neurol. 2008). These models present very well defined cell death in the brain. Cell death in the brain is the major pathological characteristic of progressing neurodegeneration common to brain diseases. As the compounds of the present invention are designed to prevent cell death in the brain as a consequence of disease and progressing brain damage after injury, including behavioral impairments, animal models displaying cell death in the brain are the models of choice for displaying the protective capabilities of the compounds of the invention. For these reasons the R6-2 model for Huntington Disease was chosen to test the effectiveness of Compound 1 and to compare the effectiveness of Compound 1 with those of the compound of U.S. Pat. No. 8,541,428 (Cpd A) and with the classical TSPO ligand PK 11195, as well as other compounds disclosed herein. Compounds 5 and 6 were also tested in the same R6-2 model.
R6-2 is a transgenic mouse model for Huntington Disease. Huntington Disease in humans is a hereditary neurodegenerative disease affecting motor performance and finally leading to death of the patients having the disease. R6-2 mice (˜120 CAG repeats B6CBA-Tg(HDexon1)62 Gpb/3J) mice were used for the experiments described below. For this purpose, mice obtained from the Jackson Laboratory (ME) were bred. In particular: males genotype: Hemizygous for Tg(HDexon1)62 Gpb, and females from the wildtype background strain B6CBAF1/J were bred according to the protocol of Jackson Laboratory. The male heterozygote offspring (R6-2 mice) were used for determining life span and motor activity, with and without drug treatment. Drug treatment consisted of daily (5 continuous days a week) subcutaneous injections of mice with 20 μl of: saline (sham control), vehicle DMSO (vehicle control), classic TSPO ligand PK 11195 (15 mg/kg), prior art Compound A (15 mg/kg), Compound 1 (15 mg/kg), and compound 1 (7.5 mg/kg). Drug treatment started on week 5 after birth. Quantities were used according to previous studies regarding TSPO ligands.
(§2) Apart from the behavioral experiments, mice were observed daily, and the day of death was noted. Behavioral experiments included distance covered in an open field apparatus, and tremor measurements.
R6-2 mice were used as previously described in Example 5. In one experiment, treatment consisted of daily (5 continuous days per week) subcutaneous injections of mice with 20 μl of vehicle DMSO (control, n=10) and Compound 6 (7.5 mg/kg, n=12). In a separate experiment, compound 5 (7.5 mg/kg, n=5) was tested, compared to DMSO control (n=5).

R6-2 mice [2] = experiment: Incidence of tremor in R6-2 mice; format: in vivo, mouse
Text: as §2
To assay incidence of tremor in R6-2 mice of the experiments for this invention, the StartleMonitor of Kinder Scientific (Poway, Calif.), with specific software to assay and present force pressure changes in newtons, was used.

SMILES	protection against lethal effects of glutamate (SH SY 6Y cells)	Protection against glutamate-induced cell death (U118MG cells)	Ki (TSPO)	mice living up to 18 weeks (R6-2 mice [1]; 7.5 mg/kg s.c.)	mice still alive at 11th week (R6-2 mice [1]; 7.5 mg/kg s.c., >50% of DMSO mice dead)	mice still alive at 12 weeks (R6-2 mice [1]; 7.5 mg/kg s.c., all DMSO mice dead)	effect on lifespan (R6-2 mice [1])	effect on lifespan (R6-2 mice [1]; listed as compound 5)	lethal effects of compound at high concentration (U118MG cells; 100 μM compound alone, halogenated vs unhalogenated analog)	protection against cell death induced by glutamate (U118MG cells)	protection against cell death induced by glutamate (U118MG cells; listed as Cpd 5)	cell death levels induced by compound by itself (U118MG cells; compound alone, no glutamate)	cell death effect of glutamate at high compound concentration (U118MG cells; glutamate plus 100 μM compound, halogenated vs unhalogenated analog)	cell death levels, Glu + compound (U118MG cells; glutamate plus increasing concentrations of compound, glutamate alone over 50%)	incidence of tremor activity (R6-2 mice [2])
CCN(CC)C(=O)Oc1nc(-c2ccc(Br)cc2)nc2ccccc12 [Compound 4, 2-(4-bromophenyl)quinazolin-4-yl diethylcarbamate]	protects neuronal cells	Good	~0.045 µM	–	–	–	–	–	–	–	–	–	–	–	–
CN(C)C(=O)Oc1nc(-c2ccccc2Cl)nc2ccccc12 [Compound 5, 2-(2-chlorophenyl)quinazolin-4-yl dimethylcarbamate]	–	Excellent	~0.6 µM	20%	100%	50%	increase the average lifespan; also recorded: extends the life span	robust lifespan enhancing	reduces lethal effects; also recorded: reduces cell death effects; also recorded: least adverse side effects	protect better and more consistently; also recorded: superior over the rest of the compounds	improves protection	≤ 5%	reduces cell death effect of glutamate in cultures even further	less than 5%	tremor reducing effects; also recorded: reduced the incidence of tremor activity
